Measurements as given in patent EP2724723A1, “Tegaserod for use in the treatment of nerve injuries” (Universitätsklinikum Hamburg-Eppendorf, priority 2012, dated 2014).

Legend:
murine motoneurons = test: In vitro neurite outgrowth of motoneurons; assay type: cell-based, C57BL/6J mice; settings: tegaserod, cisapride, GR113808 100 nM; colominic acid 3 µM; PSA mimicking peptide 30 µM; Figure 2B
Protocol: (§1) Primary cultures of cerebellar neurons or Schwann cells were prepared from cerebellum or dorsal root ganglia of 7-day-old C57BL/6J mice as described in Mehanna et al. (2009), Brain, 132 (Pt 6): 1449-62 and Loers et al. (2005), J. Neurochem., 92(6): 1463-76. Motoneurons were prepared from E14 C57BL/6J mice as described in Simova et al. (2006), Ann. Neurol., 60(4): 430-437. In brief, 48-well plates were coated with 0.01% poly-L-lysine (PLL) or poly-L-ornithine (PLO) overnight at 4°C, washed twice with water and air-dried. Directly before use, plates were washed twice with PBS, and Schwann cells, cerebellar neurons (PLL) or motoneurons (PLO) were seeded at a density of 1.25 x 10^4 (Schwann cells and motoneurons) or 2.5 x 10^4 cells (cerebellar neurons) per well in 250 µl of corresponding serum-free culture medium. Soluble organic compounds were added to the culture 1 h after seeding in increasing concentrations. After maintenance for 24 h at 37°C, cells were fixed with 2.5% glutaraldehyde and stained with 1% methylene blue/toluidine blue in 1% borax. Morphological quantification of neurite or process lengths was performed as described in Mehanna et al. (2009), see above. Schwann cell processes and neurites of cerebellar neurons with a length of at least one cell body diameter were counted and total neurite or process length per cell was determined by counting 50 cells in each of two wells per experiment. At least three independent experiments were performed for each culture. Also, the activity of tegaserod with the PSA peptide mimic and the bacterial PSA analogue, colominic acid, on neurite and process extension experiments was compared.

[1] = tested on: cerebellar granule neurons (cGNs); test: In vitro neurite outgrowth of cerebellar granule neurons; assay type: cell-based, C57BL/6J mice; settings: compared to control; Figure 2C, D
Protocol: as §1

[2] = tested on: murine cerebellar granule neurons (cGNs), Schwann cells, and motoneurons; test: In vitro neurite/process outgrowth, statements covering all cell types; assay type: cell-based, C57BL/6J mice
Protocol: as §1

[3] = tested on: motoneurons isolated from NCAM^-/- mice; test: In vitro neurite outgrowth of NCAM-deficient motoneurons; assay type: cell-based; settings: tegaserod 100 nM; colominic acid 3 µM; PSA mimicking peptide 30 µM; Figure 2B
Protocol: as §1, with “After maintenance for 24 h at 37°C, cells were fixed with 2.5% glutaraldehyde and stained with 1% methylene blue/toluidine blue in 1% borax.” left out, “At least three independent experiments were performed for each culture. Also, the activity of tegaserod with the PSA peptide mimic and the bacterial PSA analogue, colominic acid, on neurite and process extension experiments was compared.” left out

Compound: Cn1cc(C(=O)OCC2CCN(CCNS(C)(=O)=O)CC2)c2ccccc21 [GR 113808]
- effect on neurite extension of murine motoneurons (in words) (murine motoneurons): no ability to enhance motoneuron neurite extension

Compound: COc1cc(N)c(Cl)cc1C(=O)NC1CCN(CCCOc2ccc(F)cc2)CC1OC (stereo not drawn) [cisapride]
- effect on neurite extension of murine motoneurons (in words) (murine motoneurons): no ability to enhance motoneuron neurite extension
- effect on neurite outgrowth of cGNs (in words) [1]: not observed

Compound: NCCc1c[nH]c2ccc(O)cc12 [serotonin]
- effect on neurite extension of murine motoneurons (in words) (murine motoneurons): no ability to enhance motoneuron neurite extension
- effect on neurite outgrowth of cGNs (in words) [1]: not observed

Compound: NTHTDPYIYPIDC [PSA mimicking peptide]
- effect on neurite extension of murine motoneurons (in words) (murine motoneurons): significant stimulatory effect
- concentration of maximal stimulatory effects ([2]; neurite and process extension of neurons and Schwann cells): 30 µM
- effect of overdosing / higher concentrations (in words) ([2]; neurons and Schwann cells): did not lead to any negative side effects
- effect on neurite extension of NCAM^-/- motoneurons (in words) [3]: no enhancement in neurite extension
